# Measurements published in ChEMBL document CHEMBL4699563, “Synthesis and evaluation of etoposide and podophyllotoxin analogs against topoisomerase IIα and HCT-116 cells” (2020).
# Active and inactive are the calls of the source. No cut-off for these calls is given here.
# How the values were obtained:
# [1] = molecular target: DNA topoisomerase 2-alpha (Homo sapiens) (UniProt P11388); experiment: Inhibition of wild type human topoisomerase-2alpha expressed in Saccharomyces cerevisiae JEL1deltatop1 assessed as inhibition of supercoiled DNA relaxation at 100 to 200 uM using negatively supercoiled pBRDNA as substrate incubated for 15 mins in presence of ATP by gel electrophoresis; conditions: dose microM 100-200, time 15.0 min
# Chain of DNA topoisomerase 2-alpha (Homo sapiens) (P11388 whole entry): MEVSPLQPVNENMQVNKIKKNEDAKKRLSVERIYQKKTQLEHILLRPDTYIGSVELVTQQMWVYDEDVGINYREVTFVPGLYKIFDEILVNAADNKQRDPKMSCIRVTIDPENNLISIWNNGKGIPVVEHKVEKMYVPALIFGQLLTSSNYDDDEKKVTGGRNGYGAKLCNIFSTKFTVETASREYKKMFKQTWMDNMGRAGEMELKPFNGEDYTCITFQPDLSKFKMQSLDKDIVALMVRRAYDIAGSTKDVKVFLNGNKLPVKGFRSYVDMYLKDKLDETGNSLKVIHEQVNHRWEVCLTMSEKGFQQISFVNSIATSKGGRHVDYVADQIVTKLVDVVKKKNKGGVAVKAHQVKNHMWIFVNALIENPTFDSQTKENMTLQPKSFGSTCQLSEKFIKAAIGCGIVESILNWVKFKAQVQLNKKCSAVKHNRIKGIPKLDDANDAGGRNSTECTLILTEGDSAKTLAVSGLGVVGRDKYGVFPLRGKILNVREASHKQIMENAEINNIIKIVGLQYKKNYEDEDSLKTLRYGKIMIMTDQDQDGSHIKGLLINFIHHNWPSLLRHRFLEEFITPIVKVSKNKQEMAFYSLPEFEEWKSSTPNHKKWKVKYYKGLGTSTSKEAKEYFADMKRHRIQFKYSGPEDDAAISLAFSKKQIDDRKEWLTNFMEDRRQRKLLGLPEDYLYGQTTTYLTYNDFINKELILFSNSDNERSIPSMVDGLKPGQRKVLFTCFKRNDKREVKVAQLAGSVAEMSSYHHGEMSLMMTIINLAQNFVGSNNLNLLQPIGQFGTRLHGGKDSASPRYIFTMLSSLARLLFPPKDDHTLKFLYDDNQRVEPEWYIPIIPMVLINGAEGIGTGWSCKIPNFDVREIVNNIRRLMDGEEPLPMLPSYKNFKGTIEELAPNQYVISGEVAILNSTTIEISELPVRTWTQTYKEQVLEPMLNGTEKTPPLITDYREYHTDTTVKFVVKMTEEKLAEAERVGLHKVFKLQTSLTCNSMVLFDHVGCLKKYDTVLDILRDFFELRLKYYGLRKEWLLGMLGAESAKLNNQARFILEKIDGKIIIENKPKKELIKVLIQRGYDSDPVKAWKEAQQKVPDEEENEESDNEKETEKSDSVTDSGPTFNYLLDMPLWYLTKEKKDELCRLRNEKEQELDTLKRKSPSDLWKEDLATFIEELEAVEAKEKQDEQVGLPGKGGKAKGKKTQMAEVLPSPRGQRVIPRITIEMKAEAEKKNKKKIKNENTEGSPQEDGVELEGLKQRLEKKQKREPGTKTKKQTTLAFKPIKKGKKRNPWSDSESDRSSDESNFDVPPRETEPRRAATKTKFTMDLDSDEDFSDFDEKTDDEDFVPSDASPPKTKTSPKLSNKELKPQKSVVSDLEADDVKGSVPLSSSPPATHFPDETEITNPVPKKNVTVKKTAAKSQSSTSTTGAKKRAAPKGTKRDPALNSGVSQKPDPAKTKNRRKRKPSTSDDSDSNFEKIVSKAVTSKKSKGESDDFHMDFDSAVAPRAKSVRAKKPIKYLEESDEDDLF
# HCT-116 [2] = experiment: Cytotoxicity against human HCT-116 cells assessed as reduction in cell viability after 72 hrs by Alamar blue assay; assay type: functional; conditions: read-out: LD50 (the source's name)
# [3] = molecular target: DNA topoisomerase 2-alpha (Homo sapiens) (UniProt P11388); experiment: Inhibition of wild type human topoisomerase-2alpha expressed in Saccharomyces cerevisiae JEL1deltatop1 assessed as induction of supercoiled DNA cleavage at 200 uM using negatively supercoiled pBRDNA as substrate incubated for 30 mins by gel electrophoresis
# A549 [4] = experiment: Cytotoxicity against human A549 cells assessed as reduction in cell viability after 72 hrs by Alamar blue assay; assay type: functional; conditions: read-out: LD50 (the source's name)
# HCT-116 [5] = experiment: Cell cycle arrest in human HCT-116 cells assessed as accumulation at sub-G1 phase after 48 hrs by propidium iodide staining based flow cytometry analysis; assay type: functional
# HCT-116 [6] = experiment: Cell cycle arrest in human HCT-116 cells assessed as decrease in cell population at S phase after 48 hrs by propidium iodide staining based flow cytometry analysis; assay type: functional
# [7] = molecular target: DNA topoisomerase 2-alpha (Homo sapiens) (UniProt P11388); experiment: Inhibition of wild type human topoisomerase-2alpha expressed in Saccharomyces cerevisiae JEL1deltatop1 assessed as induction of supercoiled DNA cleavage using negatively supercoiled pBRDNA as substrate incubated for 30 mins by gel electrophoresis; conditions: dose microM 100-200, time 30.0 min
# [8] = molecular target: DNA topoisomerase 2-alpha (Homo sapiens) (UniProt P11388); experiment: Inhibition of wild type human topoisomerase-2alpha expressed in Saccharomyces cerevisiae JEL1deltatop1 assessed as induction of supercoiled DNA cleavage at 100 to 200 uM using negatively supercoiled pBRDNA as substrate incubated for 30 mins by gel electrophoresis; conditions: dose microM 100-200, time 30.0 min
# A549 [9] = experiment: Antiproliferative activity against human A549 cells assessed as inhibition of cell proliferation after 48 hrs by MTT assay; assay type: functional; conditions: read-out: LD50 (the source's name)
compound,measurement,setting,value
COc1cc([C@@H]2c3cc4c(cc3[C@@H](O)[C@H]3COC(=O)[C@H]23)OCO4)c(Cl)c(OC)c1O,inhibition,[1],Active
same,CC50,HCT-116 [2],33 µM
same,Activity,[3],Active
same,CC50,A549 [4],35 µM
COc1cc([C@@H]2c3cc4c(cc3[C@H](O)[C@H]3COC(=O)[C@H]23)OCO4)cc(OC)c1OC,inhibition,[1],inactive
COc1cc([C@@H]2c3cc4c(cc3[C@H](O)[C@H]3COC(=O)[C@H]23)OCO4)c(Br)c(OC)c1OC,inhibition,[1],inactive
COc1cc([C@@H]2c3cc4c(cc3[C@@H](O[C@@H]3O[C@@H]5CO[C@@H](C)O[C@H]5[C@H](O)[C@H]3O)[C@H]3COC(=O)[C@H]23)OCO4)c(Cl)c(OC)c1O,Activity,HCT-116 [5],Active
same,inhibition,[1],Active
same,CC50,HCT-116 [2],120 µM
same,Activity,HCT-116 [6],Active
same,Activity,[7],Active
same,Activity,[8],Active
COc1cc([C@@H]2c3cc4c(cc3[C@H](O)[C@H]3COC(=O)[C@H]23)OCO4)c(Cl)c(OC)c1OC,inhibition,[1],inactive
COc1cc([C@@H]2c3cc4c(cc3[C@@H](O[C@@H]3O[C@@H]5CO[C@@H](C)O[C@H]5[C@H](O)[C@H]3O)[C@H]3COC(=O)[C@H]23)OCO4)cc(OC)c1O [ETOPOSIDE],CC50,A549 [9],11.8 µM
same,CC50,HCT-116 [2],1.6 µM
COc1c(Cl)c([C@@H]2c3cc4c(cc3[C@H](O)[C@H]3COC(=O)[C@H]23)OCO4)c(Cl)c(OC)c1OC,Activity,HCT-116 [5],Active
same,inhibition,[1],Active
same,CC50,HCT-116 [2],20 µM
same,CC50,A549 [4],17 µM
same,Activity,HCT-116 [6],Active
same,Activity,[8],Active
